Assay in all cases: relative viability (nuclei count vs DMSO), 5 days (fraction); higher = more cells survive
Compound in the test “Dabrafenib + OSI-027”: CC(C)(C)c1nc(-c2cccc(NS(=O)(=O)c3c(F)cccc3F)c2F)c(-c2ccnc(N)n2)s1 [Dabrafenib] + COc1cccc2cc(-c3nc([C@H]4CC[C@H](C(=O)O)CC4)n4ncnc(N)c34)[nH]c12 [OSI-027] (partner 0.5 µM)
The procedure, abridged: (§1)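 Nuclei were stained with Hoechst during a one-step fixation (final 0.05% Triton X-100, 1% formaldehyde, 1 ug/ml Hoechst) carried out 5 days after dosing, then counted on 4× images. The cells, lung cancer lines in 1536-well plates, had been dosed by pin tool the day after seeding with one drug alone or a fixed anchor-drug dose plus five library-drug doses (not always all listed) in √10 steps. Relative viability is the nuclei count in treated wells divided by that in vehicle wells, and each value is the median of duplicate plates.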

Compound in the test “Dabrafenib + Linsitinib”: CC(C)(C)c1nc(-c2cccc(NS(=O)(=O)c3c(F)cccc3F)c2F)c(-c2ccnc(N)n2)s1 [Dabrafenib] + C[C@]1(O)C[C@@H](c2nc(-c3ccc4ccc(-c5ccccc5)nc4c3)c3c(N)nccn32)C1 [Linsitinib] (partner 1 µM)
The procedure, abridged:
as §1

Compound in the test “Dabrafenib + Pictilisib”: CC(C)(C)c1nc(-c2cccc(NS(=O)(=O)c3c(F)cccc3F)c2F)c(-c2ccnc(N)n2)s1 [Dabrafenib] + CS(=O)(=O)N1CCN(Cc2cc3nc(-c4cccc5[nH]ncc45)nc(N4CCOCC4)c3s2)CC1 [Pictilisib] (partner 1 µM)
The procedure, abridged: as §1

Compound in the test “Dabrafenib + Tozasertib”: CC(C)(C)c1nc(-c2cccc(NS(=O)(=O)c3c(F)cccc3F)c2F)c(-c2ccnc(N)n2)s1 [Dabrafenib] + Cc1cc(Nc2cc(N3CCN(C)CC3)nc(Sc3ccc(NC(=O)C4CC4)cc3)n2)n[nH]1 [Tozasertib] (partner 0.1 µM)
The procedure, abridged: as §1

Regarding HOP-62, the relative viability in the test with Dabrafenib + OSI-027 (first compound 0.003 µM) came to 0.354; in the test with Dabrafenib + OSI-027 (first compound 0.009487 µM) it was 0.841; with Dabrafenib + OSI-027 (first compound 0.03 µM), 0.778; in the test with Dabrafenib + OSI-027 (first compound 0.09487 µM), 0.631; with Dabrafenib + OSI-027 (first compound 0.3 µM), 0.557; with Dabrafenib + Linsitinib (first compound 0.009487 µM), 1.07. For the same cell line, the relative viability with Dabrafenib + Linsitinib (first compound 0.03 µM) was determined as 0.804; with Dabrafenib + Linsitinib (first compound 0.09487 µM) it was 0.831; with Dabrafenib + Linsitinib (first compound 0.3 µM) it was 0.977; with Dabrafenib + Pictilisib (first compound 0.009487 µM), 0.843; in the test with Dabrafenib + Pictilisib (first compound 0.03 µM) it was 0.648; with Dabrafenib + Pictilisib (first compound 0.09487 µM), 0.581. For the same cell line, the relative viability in the test with Dabrafenib + Pictilisib (first compound 0.3 µM) was 0.727; with Dabrafenib + Tozasertib (first compound 0.003 µM), 0.422; in the test with Dabrafenib + Tozasertib (first compound 0.009487 µM) it was 0.39; in the test with Dabrafenib + Tozasertib (first compound 0.03 µM), 0.331; with Dabrafenib + Tozasertib (first compound 0.09487 µM), 0.362; with Dabrafenib + Tozasertib (first compound 0.3 µM) it was 0.399.

As for NCI-H2228, the relative viability in the test with Dabrafenib + OSI-027 (first compound 0.009487 µM) was 0.668; in the test with Dabrafenib + OSI-027 (first compound 0.03 µM), 0.554; with Dabrafenib + OSI-027 (first compound 0.09487 µM), 0.52; in the test with Dabrafenib + OSI-027 (first compound 0.3 µM), 0.607; with Dabrafenib + Linsitinib (first compound 0.003 µM), 0.579; with Dabrafenib + Linsitinib (first compound 0.009487 µM) it was 0.839. The relative viability in the test with Dabrafenib + Linsitinib (first compound 0.03 µM) came to 0.524; with Dabrafenib + Linsitinib (first compound 0.09487 µM) it was 0.782; in the test with Dabrafenib + Linsitinib (first compound 0.3 µM), 0.81; with Dabrafenib + Pictilisib (first compound 0.003 µM) it was 0.331; in the test with Dabrafenib + Pictilisib (first compound 0.009487 µM) it was 0.386; with Dabrafenib + Pictilisib (first compound 0.03 µM), 0.415. For the same cell line, the relative viability with Dabrafenib + Pictilisib (first compound 0.09487 µM) came to 0.316; with Dabrafenib + Pictilisib (first compound 0.3 µM) it was 0.483; in the test with Dabrafenib + Tozasertib (first compound 0.009487 µM) it was 0.246; in the test with Dabrafenib + Tozasertib (first compound 0.03 µM), 0.248; with Dabrafenib + Tozasertib (first compound 0.09487 µM) it was 0.236; with Dabrafenib + Tozasertib (first compound 0.3 µM), 0.244.

For EMC-BAC-2, the relative viability in the test with Dabrafenib + OSI-027 (first compound 0.003 µM) amounted to 0.359; with Dabrafenib + OSI-027 (first compound 0.009487 µM) it was 0.376; with Dabrafenib + OSI-027 (first compound 0.03 µM), 0.301; with Dabrafenib + OSI-027 (first compound 0.09487 µM), 0.295; in the test with Dabrafenib + OSI-027 (first compound 0.3 µM) it was 0.329; with Dabrafenib + Linsitinib (first compound 0.003 µM) it was 0.773. Further, the relative viability in the test with Dabrafenib + Linsitinib (first compound 0.009487 µM) was 0.825; with Dabrafenib + Linsitinib (first compound 0.03 µM), 0.616; in the test with Dabrafenib + Linsitinib (first compound 0.09487 µM) it was 0.838; with Dabrafenib + Linsitinib (first compound 0.3 µM) it was 0.851; in the test with Dabrafenib + Pictilisib (first compound 0.003 µM), 0.52; in the test with Dabrafenib + Pictilisib (first compound 0.009487 µM) it was 0.434. The relative viability with Dabrafenib + Pictilisib (first compound 0.03 µM) worked out at 0.389; with Dabrafenib + Pictilisib (first compound 0.09487 µM), 0.585; with Dabrafenib + Pictilisib (first compound 0.3 µM), 0.623; in the test with Dabrafenib + Tozasertib (first compound 0.003 µM) it was 0.286; in the test with Dabrafenib + Tozasertib (first compound 0.009487 µM), 0.284; with Dabrafenib + Tozasertib (first compound 0.03 µM) it was 0.23. For the same cell line, the relative viability in the test with Dabrafenib + Tozasertib (first compound 0.09487 µM) stood at 0.243; with Dabrafenib + Tozasertib (first compound 0.3 µM), 0.267.

For the cell line NCI-H1355, the relative viability with Dabrafenib + OSI-027 (first compound 0.009487 µM) was found to be 0.477; with Dabrafenib + OSI-027 (first compound 0.03 µM) it was 0.34; with Dabrafenib + OSI-027 (first compound 0.09487 µM), 0.416; with Dabrafenib + OSI-027 (first compound 0.3 µM), 0.44; with Dabrafenib + Linsitinib (first compound 0.009487 µM) it was 0.858; with Dabrafenib + Linsitinib (first compound 0.03 µM), 0.682. The relative viability amounted to 0.823 with Dabrafenib + Linsitinib (first compound 0.3 µM); 0.493 in the test with Dabrafenib + Pictilisib (first compound 0.009487 µM); 0.328 in the test with Dabrafenib + Pictilisib (first compound 0.03 µM); 0.362 with Dabrafenib + Pictilisib (first compound 0.3 µM); 0.677 with Dabrafenib + Tozasertib (first compound 0.009487 µM); 0.519 in the test with Dabrafenib + Tozasertib (first compound 0.03 µM). The relative viability in the test with Dabrafenib + Tozasertib (first compound 0.09487 µM) turned out to be 0.439; in the test with Dabrafenib + Tozasertib (first compound 0.3 µM) it was 0.577.

Regarding NCI-H3122, the relative viability in the test with Dabrafenib + OSI-027 (first compound 0.003 µM) came to 0.919; with Dabrafenib + OSI-027 (first compound 0.009487 µM), 0.967; in the test with Dabrafenib + OSI-027 (first compound 0.03 µM), 1.07; with Dabrafenib + OSI-027 (first compound 0.09487 µM) it was 0.925; with Dabrafenib + OSI-027 (first compound 0.3 µM), 1.06; with Dabrafenib + Linsitinib (first compound 0.003 µM) it was 0.943. In addition, the relative viability in the test with Dabrafenib + Linsitinib (first compound 0.009487 µM) came out at 1.02; in the test with Dabrafenib + Linsitinib (first compound 0.03 µM), 1.01; with Dabrafenib + Linsitinib (first compound 0.09487 µM), 1.01; in the test with Dabrafenib + Linsitinib (first compound 0.3 µM), 1.04; in the test with Dabrafenib + Pictilisib (first compound 0.003 µM), 0.581; in the test with Dabrafenib + Pictilisib (first compound 0.009487 µM), 0.629. Further, the relative viability with Dabrafenib + Pictilisib (first compound 0.03 µM) was determined as 0.793; with Dabrafenib + Pictilisib (first compound 0.09487 µM), 0.692; with Dabrafenib + Pictilisib (first compound 0.3 µM), 0.719; with Dabrafenib + Tozasertib (first compound 0.003 µM), 0.427; with Dabrafenib + Tozasertib (first compound 0.009487 µM), 0.449; with Dabrafenib + Tozasertib (first compound 0.03 µM), 0.391. Further, the relative viability worked out at 0.374 in the test with Dabrafenib + Tozasertib (first compound 0.09487 µM) and 0.367 with Dabrafenib + Tozasertib (first compound 0.3 µM).

Source of the values: the supplement of paper PMC10307832.
